# Measured values from patent US8828908B2, “Herbicidally active bicyclic 1,3-dione compounds” (Syngenta Limited, priority 2007, dated 2014).
# What was measured:
# Assay type in all cases: in vivo
# [1] = system: Alopecurus myosuroides (ALOMY); assay: Example A pre-emergence herbicidal glasshouse test; details: 312 h, Rate 250 g/ha, evaluated after 13 days, 100=total damage to plant, 0=no damage to plant
# How it was run: (§1)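 Visual injury score (0 none to 100 total plant damage) recorded 13 days after spraying. Plants received an aqueous spray of compound in 50:50 acetone/water with 0.5% Tween 20, either one day after sowing or after eight days of cultivation, in pots kept under controlled glasshouse conditions.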
# [2] = system: Amaranthus retroflexus (AMARE); assay: Example A pre-emergence herbicidal glasshouse test; details: 312 h, Rate 250 g/ha, evaluated after 13 days, 100=total damage to plant, 0=no damage to plant
# How it was run: as §1
# Avena fatua (AVEFA) [3] = assay: Example A pre-emergence herbicidal glasshouse test; details: 312 h, Rate 250 g/ha, evaluated after 13 days, 100=total damage to plant, 0=no damage to plant
# How it was run: as §1
# [4] = system: Echinochloa crus-galli (ECHCG); assay: Example A pre-emergence herbicidal glasshouse test; details: 312 h, Rate 250 g/ha, evaluated after 13 days, 100=total damage to plant, 0=no damage to plant
# How it was run: as §1
# Setaria faberi (SETFA) [5] = assay: Example A pre-emergence herbicidal glasshouse test; details: 312 h, Rate 250 g/ha, evaluated after 13 days, 100=total damage to plant, 0=no damage to plant
# How it was run: as §1
# Solanum nigrum (SOLNI) [6] = assay: Example A pre-emergence herbicidal glasshouse test; details: Rate 250 g/ha, evaluated after 13 days, 100=total damage to plant, 0=no damage to plant
# How it was run: as §1
# [7] = system: Alopecurus myosuroides (ALOMY); assay: Example A post-emergence herbicidal glasshouse test; details: 312 h, evaluated after 13 days, 100=total damage to plant, 0=no damage
# How it was run: as §1
# [8] = system: Amaranthus retroflexus (AMARE); assay: as above; details: 312 h, evaluated after 13 days, 100=total damage to plant, 0=no damage
# How it was run: as §1
# Avena fatua (AVEFA) [9] = assay: as above; details: 312 h, evaluated after 13 days, 100=total damage to plant, 0=no damage
# How it was run: as §1
# [10] = system: Echinochloa crus-galli (ECHCG); assay: as above; details: 312 h, evaluated after 13 days, 100=total damage to plant, 0=no damage
# How it was run: as §1
# Setaria faberi (SETFA) [11] = assay: as above; details: 312 h, evaluated after 13 days, 100=total damage to plant, 0=no damage
# How it was run: as §1
# Solanum nigrum (SOLNI) [12] = assay: as above; details: 250 g/ha, evaluated after 13 days, 100=total damage to plant, 0=no damage
# How it was run: as §1
# [13] = system: Alopecurus myosuroides (ALOMY); assay: Example B pre-emergence herbicidal greenhouse test; details: 480 h, evaluated after 20 days, 100=total damage to plant, 0=no damage
# How it was run: (§2)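 Pot-grown plants sprayed with compound in an aqueous emulsifiable formulation (Emulsogen EL, N-methylpyrrolidone, dipropylene glycol monomethyl ether, X-77) one day after sowing (pre-emergence) or after 10 days (post-emergence). Damage scored 0 (none) to 100 (total) after 20 days pre-emergence or 15 days post-emergence.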
# Avena fatua (AVEFA) [14] = assay: Example B pre-emergence herbicidal greenhouse test; details: 480 h, evaluated after 20 days, 100=total damage to plant, 0=no damage
# How it was run: as §2
# [15] = system: Digitaria sanguinalis (DIGSA); assay: Example B pre-emergence herbicidal greenhouse test; details: 480 h, evaluated after 20 days, 100=total damage to plant, 0=no damage
# How it was run: as §2
# [16] = system: Echinochloa crus-galli (ECHCG); assay: Example B pre-emergence herbicidal greenhouse test; details: 480 h, evaluated after 20 days, 100=total damage to plant, 0=no damage
# How it was run: as §2
# Lolium perenne (LOLPE) [17] = assay: Example B pre-emergence herbicidal greenhouse test; details: 480 h, evaluated after 20 days, 100=total damage to plant, 0=no damage
# How it was run: as §2
# Setaria faberi (SETFA) [18] = assay: Example B pre-emergence herbicidal greenhouse test; details: 480 h, evaluated after 20 days, 100=total damage to plant, 0=no damage
# How it was run: as §2
# [19] = system: Alopecurus myosuroides (ALOMY); assay: Example B post-emergence herbicidal greenhouse test; details: 360 h, evaluated after 15 days, 100=total damage to plant, 0=no damage
# How it was run: as §2
# Avena fatua (AVEFA) [20] = assay: as above; details: 360 h, evaluated after 15 days, 100=total damage to plant, 0=no damage
# How it was run: as §2
# [21] = system: Digitaria sanguinalis (DIGSA); assay: as above; details: 360 h, evaluated after 15 days, 100=total damage to plant, 0=no damage
# How it was run: as §2
# [22] = system: Echinochloa crus-galli (ECHCG); assay: as above; details: 360 h, evaluated after 15 days, 100=total damage to plant, 0=no damage
# How it was run: as §2
# Lolium perenne (LOLPE) [23] = assay: as above; details: 360 h, evaluated after 15 days, 100=total damage to plant, 0=no damage
# How it was run: as §2
# Setaria faberi (SETFA) [24] = assay: as above; details: 360 h, evaluated after 15 days, 100=total damage to plant, 0=no damage
# How it was run: as §2
SMILES,pest or weed control at 250 g/ha [1],pest or weed control at 250 g/ha [2],pest or weed control at 250 g/ha (Avena fatua (AVEFA) [3]),pest or weed control at 250 g/ha [4],pest or weed control at 250 g/ha (Setaria faberi (SETFA) [5]),SOLNI damage to plant (Solanum nigrum (SOLNI) [6]),pest or weed control at 250 g/ha [7],pest or weed control at 250 g/ha [8],pest or weed control at 250 g/ha (Avena fatua (AVEFA) [9]),pest or weed control at 250 g/ha [10],pest or weed control at 250 g/ha (Setaria faberi (SETFA) [11]),SOLNI damage to plant (Solanum nigrum (SOLNI) [12]),pest or weed control at 250 g/ha [13],pest or weed control at 250 g/ha (Avena fatua (AVEFA) [14]),pest or weed control at 250 g/ha [15],pest or weed control at 250 g/ha [16],pest or weed control at 250 g/ha (Lolium perenne (LOLPE) [17]),pest or weed control at 250 g/ha (Setaria faberi (SETFA) [18]),pest or weed control at 125 g/ha [19],pest or weed control at 125 g/ha (Avena fatua (AVEFA) [20]),further results
"Cc1ccc(-c2ccccc2F)cc1C1=C(O)[C@H]2CC[C@H](C2)C1=O (single isomer, unassigned) [Compound T16]",0%,0%,0%,0%,0%,0,0%,0%,0%,0%,0%,0,,,,,,,,,
"Cc1ccc(-c2ccc(F)cc2)cc1C1=C(O)[C@H]2CC[C@H](C2)C1=O (single isomer, unassigned) [Compound T17]",0%,0%,10%,50%,80%,0,10%,0%,0%,70%,80%,0,,,,,,,,,
"Cc1ccc(-c2ccc(Cl)cc2)cc1C1=C(O)[C@H]2CC[C@H](C2)C1=O [Compound T1, 3-(4′-chloro-4-methylbiphen-3-yl)bicyclo[3.2.1]octane-2,4-dione]",50%,0%,40%,90%,90%,0,80%,50%,90%,100%,100%,20,80%,30%,50%,100%,100%,100%,50%,30%,pest or weed control at 125 g/ha [21]: 90%; pest or weed control at 125 g/ha [22]: 90%; pest or weed control at 125 g/ha (Lolium perenne (LOLPE) [23]): 50%; pest or weed control at 125 g/ha (Setaria faberi (SETFA) [24]): 90%
"CCc1ccc(-c2ccc(Cl)cc2)cc1C1=C(O)[C@H]2CC[C@H](C2)C1=O [Compound T4, 3-(4′-chloro-4-ethylbiphen-3-yl)bicyclo[3.2.1]octane-2,4-dione]",50%,0%,50%,100%,90%,0,90%,0%,100%,100%,100%,0,100%,80%,100%,100%,100%,100%,80%,100%,pest or weed control at 125 g/ha [21]: 100%; pest or weed control at 125 g/ha [22]: 100%; pest or weed control at 125 g/ha (Lolium perenne (LOLPE) [23]): 100%; pest or weed control at 125 g/ha (Setaria faberi (SETFA) [24]): 100%
